According to patent US20100190827A1, “POLYMORPHIC FORM OF RIMONABANT, METHOD FOR PREPARING IT AND PHARMACEUTICAL COMPOSITIONS CONTAINING IT” (SANOFI-AVENTIS, priority 2001, published 2010):
In brackets after ≈: the same amount, converted by molar mass. Where two headings read alike, the source gives them in different places.

Assay: Solubility of the crystalline forms in methylcyclohexane (Mullin method)
Type: physicochemical
Conditions: for solubility: methylcyclohexane, organic solvent or mixture, thermodynamic from solid, read-out: Solubility Concentration; for solubility / Solubility Concentration: at equilibrium; for Thermodynamic stability compared with form I: inferred from the lower solubility in methylcyclohexane, 10 °C to 70 °C
Experimental: The solubility of the 2 crystalline forms of rimonabant in the same solvent was also measured. The method used is described in Measurement of Solubility in J. W. Mullin. Crystallization: 3rd edition, Ipswich (GB): Butterworth-Heinemann, 1993, p. 105.
The measurements were carried out for each of the crystalline forms, in solution in methylcyclohexane at temperatures varying from 10° C. to 70° C. At equilibrium, for each temperature, the undissolved crystalline form is characterized by infrared spectrography, in particular by its main bands.

Compound | solubility (10 °C, in methylcyclohexane, 10.00 °C) [mg/mL] | solubility (20 °C, in methylcyclohexane, 20.00 °C) [mg/mL] | solubility (30 °C, in methylcyclohexane, 30.00 °C) [mg/mL] | solubility (40 °C, in methylcyclohexane, 40.00 °C) [mg/mL] | solubility (50 °C, in methylcyclohexane, 50.00 °C) [mg/mL] | solubility (60 °C, in methylcyclohexane, 60.00 °C) [mg/mL] | solubility (70 °C, in methylcyclohexane, 70.00 °C) [mg/mL] | Solubility Concentration (in methylcyclohexane, 10.00 °C) [mg/mL] | Solubility Concentration (in methylcyclohexane, 20.00 °C) [mg/mL] | Solubility Concentration (in methylcyclohexane, 30.00 °C) [mg/mL] | Solubility Concentration (in methylcyclohexane, 40.00 °C) [mg/mL] | Solubility Concentration (in methylcyclohexane, 50.00 °C) [mg/mL] | Solubility Concentration (in methylcyclohexane, 60.00 °C) [mg/mL] | Solubility Concentration (in methylcyclohexane, 70.00 °C) [mg/mL] | Solubility compared with form I (in methylcyclohexane, all temperatures between 10 °C and 70 °C) | Thermodynamic stability compared with form I (listed as crystalline form II of rimonabant) | Thermodynamic stability compared with form I (listed as rimonabant form II)
Cc1c(C(=O)NN2CCCCC2)nn(-c2ccc(Cl)cc2Cl)c1-c1ccc(Cl)cc1 [Form I, N-Piperidino-5-(4-chlorophenyl)-1-(2,4-dichlorophenyl)-4-methyl-3-pyrazolecarboxamide, reference compound] | 4.86 (≈ 10.5 mM) | 6.92 (≈ 14.9 mM) | 9.3 (≈ 20.1 mM) | 13.7 (≈ 29.5 mM) | 20.4 (≈ 44 mM) | 31.2 (≈ 67.3 mM) | 52.4 (≈ 113 mM) | – | – | – | – | – | – | – | – | – | –
Cc1c(C(=O)NN2CCCCC2)nn(-c2ccc(Cl)cc2Cl)c1-c1ccc(Cl)cc1 [Form II, N-piperidino-5-(4-chlorophenyl)-1-(2,4-dichlorophenyl)-4-methyl-3-pyrazolecarboxamide] | – | – | – | – | – | – | – | 4.50 (≈ 9.7 mM) | 6.60 (≈ 14.2 mM) | 9.20 (≈ 19.8 mM) | 12.60 (≈ 27.2 mM) | 19.00 (≈ 41 mM) | 29.20 (≈ 63 mM) | 42.00 (≈ 90.6 mM) | less soluble | stability greater than that of form I | thermodynamically more stable than rimonabant form I
